Assay results published in publication PMC12027839, “Aging-Associated Amyloid-β Plaques and Neuroinflammation in Bottlenose Dolphins (Tursiops truncatus) and Novel Cognitive Health-Supporting Roles of Pentadecanoic Acid (C15:0)” (International Journal of Molecular Sciences, 2025).

What was measured:
[1] = biological target: Protein Serine/Threonine Kinase, GSK3B (Homo sapiens, UniProt P49841); assay: biochemical; parameters: Eurofins Alzheimer's MoA LeadHunter enzyme assays; percent inhibition of enzyme activity, mean of duplicates; details: Ligand or Substrate=Phospho-glycogen synthase peptide-2
Procedure: (§1) Standardized enzyme and radioligand binding assays were used by an independent third party (Eurofins Discovery, Taiwan) to evaluate C15:0 across ten concentrations and up to 50 µM for activities as part of the Eurofins Discovery Alzheimer’s MoA LeadHunter Panel. Methods employed in this study were adapted from the scientific literature to maximize reliability and reproducibility. Reference standards were run as an integral part of each assay to ensure the validity of the results obtained. IC50 values were determined by a non-linear, least squares regression analysis using MathIQTM (ID Business Solutions Ltd., Woking, UK). This study included evaluated inhibition of the following targets by C15:0 using enzyme assays (Cholinesterase, Acetyl, ACES; Cholinesterase, Butyryl, CHLE; Peptidase, CTSB (Cathepsin B); Cyclooxygenase COX-1; Cyclooxygenase COX-2; Myeloperoxidase; IDO1; Monoamine Oxidase MAO-A; Monoamine Oxidase MAO-B; Peptidase, Endothelin Converting Enzyme-1 (ECE-1); Peptidase, Metalloproteinase, Neutral Endopeptidase; Peptidase, BACE1 (beta-Secretase); Protein Tyrosine Kinase, Fyn; Protein Serine/Threonine Kinase, GSK3B; Protein Serine/Threonine Kinase, MAPK14 (p38alpha); Protein Tyrosine Phosphatase, DUSP22; Fatty Acid Amide Hydrolase (FAAH); Nitric Oxide Synthetase, Inducible (iNOS); Catechol-O-Methyl Transferase (COMT); and Lipoxygenase 15-LOX-2) and radioligand binding assays (Adenosine A2A; Transporter, GABA; GABAA, Ro-15-1788, Hippocampus; Glutamate, AMPA; Glutamate, NMDA, MK-801; Glutamate, NMDA, Polyamine; Glutamate, Metabotropic, mGlu5; Histamine H3; Chemokine CX3CR1; Muscarinic M1; Nicotinic Acetylcholine alpha7, Methyllycaconitine; Serotonin (5-Hydroxytryptamine) 5-HT1A, WAY-100635; Serotonin (5-Hydroxytryptamine) 5-HT4B; Serotonin (5-Hydroxytryptamine) 5-HT6; Sodium Channel, Site 1; Somatostatin sst4; Sigma 2; Sigma1; Platelet Activating Factor (PAF)). Biochemical assay results were presented as the percent inhibition of specific binding or activity. […] Primary screening was conducted in duplicate with semi-quantitative data (e.g., estimated IC50). Significant responses (≥50% inhibition) were noted.

[2] = biological target: T1, Peptidase, Endothelin Converting Enzyme-1 (ECE-1) (Homo sapiens, UniProt P42892); assay: biochemical; parameters: Eurofins Alzheimer's MoA LeadHunter enzyme assays; percent inhibition of enzyme activity, mean of duplicates; details: Ligand or Substrate=Mca-[…]Dnp)
T1 construct: gene ECE1
Procedure: as §1

[3] = biological target: T2, Monoamine Oxidase MAO-A (Homo sapiens, UniProt P21397); assay: biochemical; parameters: Eurofins Alzheimer's MoA LeadHunter enzyme assays; percent inhibition of enzyme activity, mean of duplicates; details: Ligand or Substrate=Kynuramine
T2 construct: gene MAOA
T2 sequence (P21397 whole entry): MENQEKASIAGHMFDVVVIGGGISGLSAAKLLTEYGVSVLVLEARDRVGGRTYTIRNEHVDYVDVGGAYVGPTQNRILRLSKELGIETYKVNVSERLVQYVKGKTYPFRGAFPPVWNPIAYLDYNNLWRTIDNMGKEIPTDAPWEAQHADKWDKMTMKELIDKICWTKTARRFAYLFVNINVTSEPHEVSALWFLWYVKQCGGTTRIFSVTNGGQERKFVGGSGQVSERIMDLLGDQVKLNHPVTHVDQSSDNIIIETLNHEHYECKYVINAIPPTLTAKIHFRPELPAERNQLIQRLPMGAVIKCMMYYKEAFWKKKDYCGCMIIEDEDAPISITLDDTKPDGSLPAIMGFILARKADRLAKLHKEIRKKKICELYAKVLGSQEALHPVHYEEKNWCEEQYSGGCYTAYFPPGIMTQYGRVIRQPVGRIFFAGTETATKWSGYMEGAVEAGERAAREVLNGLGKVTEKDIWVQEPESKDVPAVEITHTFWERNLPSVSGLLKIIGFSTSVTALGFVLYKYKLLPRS
Procedure: as §1

[4] = biological target: T3, Monoamine Oxidase MAO-B (Homo sapiens, UniProt P27338); assay: biochemical; parameters: Eurofins Alzheimer's MoA LeadHunter enzyme assays; percent inhibition of enzyme activity, mean of duplicates; details: Ligand or Substrate=Kynuramine
T3 construct: gene MAOB
Procedure: as §1

[5] = biological target: T4, Myeloperoxidase (Homo sapiens, UniProt P05164); assay: biochemical; parameters: Eurofins Alzheimer's MoA LeadHunter enzyme assays; percent inhibition of enzyme activity, mean of duplicates; details: Ligand or Substrate=Guaiacol
T4 construct: gene MPO
Procedure: as §1

[6] = biological target: Protein Serine/Threonine Kinase, MAPK14 (p38alpha) (Homo sapiens, UniProt Q16539); assay: biochemical; parameters: Eurofins Alzheimer's MoA LeadHunter enzyme assays; percent inhibition of enzyme activity, mean of duplicates; details: Ligand or Substrate=Myelin Basic Protein (MBP)
Chain of Protein Serine/Threonine Kinase, MAPK14 (p38alpha) (Q16539 whole entry): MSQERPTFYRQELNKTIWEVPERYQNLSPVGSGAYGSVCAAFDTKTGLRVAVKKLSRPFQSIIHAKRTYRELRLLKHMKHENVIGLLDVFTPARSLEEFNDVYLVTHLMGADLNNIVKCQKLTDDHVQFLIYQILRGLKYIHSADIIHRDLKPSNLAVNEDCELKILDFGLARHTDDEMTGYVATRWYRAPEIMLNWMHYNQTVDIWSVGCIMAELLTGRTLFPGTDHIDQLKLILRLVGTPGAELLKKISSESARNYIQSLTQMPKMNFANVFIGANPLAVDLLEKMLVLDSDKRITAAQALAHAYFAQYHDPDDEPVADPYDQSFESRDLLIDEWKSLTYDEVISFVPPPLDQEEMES
Procedure: as §1

[7] = biological target: T5, Lipoxygenase 15-LOX-2 (Homo sapiens, UniProt O15296); assay: biochemical; parameters: Eurofins Alzheimer's MoA LeadHunter enzyme assays; percent inhibition of enzyme activity, mean of duplicates; details: Ligand or Substrate=AMC arachidonoyl amide
T5 construct: gene ALOX15B
Procedure: as §1

[8] = biological target: T6, Fatty Acid Amide Hydrolase (FAAH) (Homo sapiens, UniProt O00519); assay: biochemical; parameters: Eurofins Alzheimer's MoA LeadHunter enzyme assays; percent inhibition of enzyme activity, mean of duplicates; details: Ligand or Substrate=AMC arachidonoyl amide
T6 sequence (O00519 whole entry): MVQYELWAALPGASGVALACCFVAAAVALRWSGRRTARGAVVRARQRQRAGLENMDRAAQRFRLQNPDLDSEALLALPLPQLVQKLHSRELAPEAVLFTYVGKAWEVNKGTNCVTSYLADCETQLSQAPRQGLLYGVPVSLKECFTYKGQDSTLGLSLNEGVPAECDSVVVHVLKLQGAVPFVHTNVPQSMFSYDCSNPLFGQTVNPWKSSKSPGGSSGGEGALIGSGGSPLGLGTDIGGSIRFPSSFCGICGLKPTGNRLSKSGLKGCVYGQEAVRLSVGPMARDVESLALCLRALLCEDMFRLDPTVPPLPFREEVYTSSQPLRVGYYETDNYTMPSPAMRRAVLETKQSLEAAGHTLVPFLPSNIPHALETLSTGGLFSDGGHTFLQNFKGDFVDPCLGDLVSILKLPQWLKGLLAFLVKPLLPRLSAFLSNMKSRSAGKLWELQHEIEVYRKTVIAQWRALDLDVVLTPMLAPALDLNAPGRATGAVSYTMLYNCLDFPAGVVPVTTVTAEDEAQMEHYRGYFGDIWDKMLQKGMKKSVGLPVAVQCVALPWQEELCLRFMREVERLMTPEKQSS
Procedure: as §1

[9] = biological target: Protein Tyrosine Phosphatase, DUSP22 (Homo sapiens, UniProt Q9NRW4); assay: biochemical; parameters: Eurofins Alzheimer's MoA LeadHunter enzyme assays; percent inhibition of enzyme activity, mean of duplicates; details: Ligand or Substrate=DiFMUP
Procedure: as §1

[10] = biological target: Protein Tyrosine Kinase, Fyn (Homo sapiens, UniProt P06241); assay: biochemical; parameters: Eurofins Alzheimer's MoA LeadHunter enzyme assays; percent inhibition of enzyme activity, mean of duplicates; details: Ligand or Substrate=Poly(Glu:Tyr)
Procedure: as §1

[11] = biological target: Peptidase, CTSB (Cathepsin B) (Homo sapiens, UniProt P07858); assay: biochemical; parameters: Eurofins Alzheimer's MoA LeadHunter enzyme assays; percent inhibition of enzyme activity, mean of duplicates; details: Ligand or Substrate=Boc-Leu-Arg-Arg-AMC
Procedure: as §1

[12] = biological target: T7, Peptidase, Metalloproteinase, Neutral Endopeptidase (Homo sapiens, UniProt P08473); assay: biochemical; parameters: Eurofins Alzheimer's MoA LeadHunter enzyme assays; percent inhibition of enzyme activity, mean of duplicates; details: Ligand or Substrate=Mca-R-P-P-G-F-S-A-F-K(Dnp)-OH
T7 construct: gene MME
T7 sequence (P08473 whole entry): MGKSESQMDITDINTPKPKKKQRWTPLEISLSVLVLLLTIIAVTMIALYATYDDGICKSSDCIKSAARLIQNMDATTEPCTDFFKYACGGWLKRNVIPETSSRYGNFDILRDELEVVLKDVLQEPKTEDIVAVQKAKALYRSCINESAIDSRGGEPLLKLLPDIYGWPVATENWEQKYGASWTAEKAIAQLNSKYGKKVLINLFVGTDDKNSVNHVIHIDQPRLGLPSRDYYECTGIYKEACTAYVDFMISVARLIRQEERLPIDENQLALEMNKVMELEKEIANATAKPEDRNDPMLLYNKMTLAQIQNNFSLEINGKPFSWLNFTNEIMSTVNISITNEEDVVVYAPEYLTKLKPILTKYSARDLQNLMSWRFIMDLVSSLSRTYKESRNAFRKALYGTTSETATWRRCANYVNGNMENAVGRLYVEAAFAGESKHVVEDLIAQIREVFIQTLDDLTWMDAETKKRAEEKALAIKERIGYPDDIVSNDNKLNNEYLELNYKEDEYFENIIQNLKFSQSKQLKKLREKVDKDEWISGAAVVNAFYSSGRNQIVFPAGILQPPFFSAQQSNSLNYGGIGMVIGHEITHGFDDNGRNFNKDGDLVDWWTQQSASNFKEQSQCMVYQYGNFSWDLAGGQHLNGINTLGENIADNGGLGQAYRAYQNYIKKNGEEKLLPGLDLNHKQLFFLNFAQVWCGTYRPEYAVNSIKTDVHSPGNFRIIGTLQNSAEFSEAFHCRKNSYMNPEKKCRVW
Procedure: as §1

[13] = biological target: T8, Cholinesterase, Acetyl, ACES (Homo sapiens, UniProt P22303); assay: biochemical; parameters: Eurofins Alzheimer's MoA LeadHunter enzyme assays; percent inhibition of enzyme activity, mean of duplicates; details: Ligand or Substrate=Acetylthiocholine
T8 construct: gene ACHE
T8 sequence (P22303 whole entry): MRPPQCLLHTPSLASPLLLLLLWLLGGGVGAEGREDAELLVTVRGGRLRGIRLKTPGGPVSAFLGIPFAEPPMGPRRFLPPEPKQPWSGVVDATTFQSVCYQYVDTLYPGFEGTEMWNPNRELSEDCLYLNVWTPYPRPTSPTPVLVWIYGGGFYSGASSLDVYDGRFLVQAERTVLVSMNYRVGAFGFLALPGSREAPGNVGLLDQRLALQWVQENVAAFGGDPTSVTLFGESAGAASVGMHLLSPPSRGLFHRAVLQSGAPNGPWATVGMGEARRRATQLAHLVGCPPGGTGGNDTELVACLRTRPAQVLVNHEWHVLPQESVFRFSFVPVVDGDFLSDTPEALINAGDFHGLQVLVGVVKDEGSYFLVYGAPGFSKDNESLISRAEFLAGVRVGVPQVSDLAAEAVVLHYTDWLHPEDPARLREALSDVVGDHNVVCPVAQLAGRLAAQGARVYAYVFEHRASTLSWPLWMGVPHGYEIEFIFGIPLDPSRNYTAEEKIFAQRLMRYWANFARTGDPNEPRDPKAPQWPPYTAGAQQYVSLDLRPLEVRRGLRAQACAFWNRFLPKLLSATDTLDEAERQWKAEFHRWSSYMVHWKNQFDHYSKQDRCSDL
Procedure: as §1

[14] = biological target: T9, Cyclooxygenase COX-2 (Homo sapiens, UniProt P35354); assay: biochemical; parameters: Eurofins Alzheimer's MoA LeadHunter enzyme assays; percent inhibition of enzyme activity, mean of duplicates; details: Ligand or Substrate=Arachidonic acid
T9 construct: gene PTGS2
Procedure: as §1

[15] = biological target: T10, Cholinesterase, Butyryl, CHLE (Homo sapiens, UniProt P06276); assay: biochemical; parameters: Eurofins Alzheimer's MoA LeadHunter enzyme assays; percent inhibition of enzyme activity, mean of duplicates; details: Ligand or Substrate=S-Butyrylthiocholine
T10 construct: gene BCHE
Procedure: as §1

[16] = biological target: Catechol-O-Methyl Transferase (COMT) (Sus scrofa, UniProt Q99028); assay: biochemical; parameters: Eurofins Alzheimer's MoA LeadHunter enzyme assays; percent inhibition of enzyme activity, mean of duplicates; details: Ligand or Substrate=Esculetin
Procedure: as §1

[17] = biological target: T11, Cyclooxygenase COX-1 (Homo sapiens, UniProt P23219); assay: biochemical; parameters: Eurofins Alzheimer's MoA LeadHunter enzyme assays; percent inhibition of enzyme activity, mean of duplicates; details: Ligand or Substrate=Arachidonic acid
T11 construct: gene PTGS1
T11 sequence (P23219 whole entry): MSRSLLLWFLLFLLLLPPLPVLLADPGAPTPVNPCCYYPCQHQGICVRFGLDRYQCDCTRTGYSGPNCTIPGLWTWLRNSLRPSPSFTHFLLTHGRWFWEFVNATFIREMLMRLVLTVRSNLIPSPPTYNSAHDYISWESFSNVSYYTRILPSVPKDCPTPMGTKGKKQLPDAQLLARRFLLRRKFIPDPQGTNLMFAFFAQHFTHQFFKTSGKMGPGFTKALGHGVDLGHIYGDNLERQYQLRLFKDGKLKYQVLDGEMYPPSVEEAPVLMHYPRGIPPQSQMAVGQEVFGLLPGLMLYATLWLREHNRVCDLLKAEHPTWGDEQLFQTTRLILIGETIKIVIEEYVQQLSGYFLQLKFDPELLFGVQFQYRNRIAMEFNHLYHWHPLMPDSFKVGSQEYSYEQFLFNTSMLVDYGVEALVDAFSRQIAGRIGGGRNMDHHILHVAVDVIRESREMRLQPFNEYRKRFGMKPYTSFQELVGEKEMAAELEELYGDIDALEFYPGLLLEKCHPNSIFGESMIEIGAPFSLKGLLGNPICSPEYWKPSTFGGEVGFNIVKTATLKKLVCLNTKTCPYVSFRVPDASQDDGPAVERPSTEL
Procedure: as §1

[18] = biological target: Peptidase, BACE1 (beta-Secretase) (Homo sapiens, UniProt P56817); assay: biochemical; parameters: Eurofins Alzheimer's MoA LeadHunter enzyme assays; percent inhibition of enzyme activity, mean of duplicates; details: Ligand or Substrate=MOCAc-S-E-V-N-L-D-A-E-F-R-K(Dnp)-R-R-NH2
Chain of Peptidase, BACE1 (beta-Secretase) (P56817 whole entry): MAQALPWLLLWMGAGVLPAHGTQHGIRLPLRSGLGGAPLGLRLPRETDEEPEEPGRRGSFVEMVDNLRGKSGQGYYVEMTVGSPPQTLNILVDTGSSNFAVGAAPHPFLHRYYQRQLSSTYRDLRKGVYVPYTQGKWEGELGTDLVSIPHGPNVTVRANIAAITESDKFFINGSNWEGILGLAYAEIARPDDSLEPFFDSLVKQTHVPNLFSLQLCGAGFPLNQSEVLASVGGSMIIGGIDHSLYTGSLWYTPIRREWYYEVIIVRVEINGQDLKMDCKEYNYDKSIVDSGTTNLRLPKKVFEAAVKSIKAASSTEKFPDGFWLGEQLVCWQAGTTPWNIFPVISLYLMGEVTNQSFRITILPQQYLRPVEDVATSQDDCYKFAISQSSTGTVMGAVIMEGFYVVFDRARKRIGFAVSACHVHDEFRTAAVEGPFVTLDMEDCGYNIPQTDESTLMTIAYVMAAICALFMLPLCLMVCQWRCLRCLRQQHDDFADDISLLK
Procedure: as §1

[19] = biological target: IDO1 (Homo sapiens, UniProt P14902); assay: biochemical; parameters: Eurofins Alzheimer's MoA LeadHunter enzyme assays; percent inhibition of enzyme activity, mean of duplicates; details: Ligand or Substrate=L-tryptophan (L-Trp)
Procedure: as §1

[20] = biological target: T6, Fatty Acid Amide Hydrolase (FAAH); assay: Enzyme assay with human recombinant FAAH (Sf21 cells), AMC arachidonoyl amide substrate, spectrofluorimetric, […] concentrations; assay type: biochemical
[21] = biological target: T12, Monoamine oxidase B (MAO-B) (Homo sapiens, UniProt P27338); assay: Enzyme assay with human recombinant MAO-B (insect cells), kynuramine substrate, spectrofluorimetric, […] concentrations; assay type: biochemical
T12 construct: gene MAOB
T12 sequence (P27338 2-520): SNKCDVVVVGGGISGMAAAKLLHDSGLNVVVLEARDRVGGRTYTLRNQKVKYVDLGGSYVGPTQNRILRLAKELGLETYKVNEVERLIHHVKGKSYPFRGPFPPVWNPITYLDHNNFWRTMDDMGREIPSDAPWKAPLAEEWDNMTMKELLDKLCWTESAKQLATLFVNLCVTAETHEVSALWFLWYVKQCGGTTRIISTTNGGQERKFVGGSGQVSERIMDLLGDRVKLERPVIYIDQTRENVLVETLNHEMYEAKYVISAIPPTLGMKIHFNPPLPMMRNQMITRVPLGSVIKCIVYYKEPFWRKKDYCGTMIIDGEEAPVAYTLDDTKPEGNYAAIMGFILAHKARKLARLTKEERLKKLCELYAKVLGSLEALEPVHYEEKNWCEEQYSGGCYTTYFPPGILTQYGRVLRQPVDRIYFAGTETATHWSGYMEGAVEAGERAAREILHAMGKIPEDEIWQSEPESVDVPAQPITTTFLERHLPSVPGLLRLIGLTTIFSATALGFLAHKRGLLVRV

[22] = biological target: Chemokine CX3CR1 (Homo sapiens, UniProt P49238); assay: biochemical; parameters: Eurofins Alzheimer's MoA LeadHunter radioligand binding assays; percent inhibition of specific binding, mean of duplicates; details: Ligand or Substrate=[125I]Fractalkine
Procedure: as §1

[23] = biological target: T13, Serotonin (5-Hydroxytryptamine) 5-HT1A, WAY-100635 (Homo sapiens, UniProt P08908); assay: biochemical; parameters: Eurofins Alzheimer's MoA LeadHunter radioligand binding assays; percent inhibition of specific binding, mean of duplicates; details: Ligand or Substrate=[3H]WAY100635
T13 construct: gene HTR1A; WAY-100635
Procedure: as §1

[24] = biological target: T14, Muscarinic M1 (Homo sapiens, UniProt P11229); assay: biochemical; parameters: Eurofins Alzheimer's MoA LeadHunter radioligand binding assays; percent inhibition of specific binding, mean of duplicates; details: Ligand or Substrate=[3H]N-Methylscopolamine
T14 construct: gene CHRM1
Procedure: as §1

[25] = biological target: T15, Sigma1 (Homo sapiens, UniProt Q99720); assay: biochemical; parameters: Eurofins Alzheimer's MoA LeadHunter radioligand binding assays; percent inhibition of specific binding, mean of duplicates; details: Ligand or Substrate=[3H]Pentazocine
T15 construct: gene SIGMAR1
Procedure: as §1

[26] = biological target: T16, Histamine H3 (Homo sapiens, UniProt Q9Y5N1); assay: biochemical; parameters: Eurofins Alzheimer's MoA LeadHunter radioligand binding assays; percent inhibition of specific binding, mean of duplicates; details: Ligand or Substrate=[3H]N-alpha-Methylhistamine (NAMH)
T16 construct: gene HRH3
T16 sequence (Q9Y5N1 whole entry): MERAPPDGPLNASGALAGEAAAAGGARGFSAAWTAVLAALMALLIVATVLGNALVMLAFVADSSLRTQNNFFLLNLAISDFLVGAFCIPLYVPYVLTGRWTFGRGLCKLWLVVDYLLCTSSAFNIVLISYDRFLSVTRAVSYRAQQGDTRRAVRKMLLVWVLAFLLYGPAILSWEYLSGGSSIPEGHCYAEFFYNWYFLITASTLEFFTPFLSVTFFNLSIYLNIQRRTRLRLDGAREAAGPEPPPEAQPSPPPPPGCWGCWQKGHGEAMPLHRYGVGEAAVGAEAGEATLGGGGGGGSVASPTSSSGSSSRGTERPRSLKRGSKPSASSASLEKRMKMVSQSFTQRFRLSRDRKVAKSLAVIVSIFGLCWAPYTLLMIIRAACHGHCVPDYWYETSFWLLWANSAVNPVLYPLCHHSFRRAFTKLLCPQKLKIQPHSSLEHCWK
Procedure: as §1

[27] = biological target: T17, Somatostatin sst4 (Homo sapiens, UniProt P31391); assay: biochemical; parameters: Eurofins Alzheimer's MoA LeadHunter radioligand binding assays; percent inhibition of specific binding, mean of duplicates; details: Ligand or Substrate=[125I]Tyr11-Somatostatin 14
T17 construct: gene SSTR4
Procedure: as §1

[28] = biological target: T18, Adenosine A2A (Homo sapiens, UniProt P29274); assay: biochemical; parameters: Eurofins Alzheimer's MoA LeadHunter radioligand binding assays; percent inhibition of specific binding, mean of duplicates; details: Ligand or Substrate=[3H]CGS-21680
T18 construct: gene ADORA2A
Procedure: as §1

[29] = biological target: T19, Platelet Activating Factor (PAF) (Homo sapiens, UniProt P25105); assay: biochemical; parameters: Eurofins Alzheimer's MoA LeadHunter radioligand binding assays; percent inhibition of specific binding, mean of duplicates; details: Ligand or Substrate=[3H]PAF
T19 construct: gene PTAFR
Procedure: as §1

[30] = biological target: T20, Glutamate, Metabotropic, mGlu5 (Homo sapiens, UniProt P41594); assay: biochemical; parameters: Eurofins Alzheimer's MoA LeadHunter radioligand binding assays; percent inhibition of specific binding, mean of duplicates; details: Ligand or Substrate=[3H]Quisqualic acid
T20 construct: gene GRM5
Procedure: as §1

[31] = biological target: T21, Serotonin (5-Hydroxytryptamine) 5-HT6 (Homo sapiens, UniProt P50406); assay: biochemical; parameters: Eurofins Alzheimer's MoA LeadHunter radioligand binding assays; percent inhibition of specific binding, mean of duplicates; details: Ligand or Substrate=[3H]Lysergic acid diethylamide (LSD)
T21 construct: gene HTR6
Procedure: as §1

[32] = biological target: T22, Nicotinic Acetylcholine alpha7, Methyllycaconitine (Rattus norvegicus, UniProt Q05941); assay: biochemical; parameters: Eurofins Alzheimer's MoA LeadHunter radioligand binding assays; percent inhibition of specific binding, mean of duplicates; details: Ligand or Substrate=[3H]Methyllycaconitine
T22 construct: gene Chrna7; methyllycaconitine site
Procedure: as §1

[33] = biological target: T23, Serotonin (5-Hydroxytryptamine) 5-HT4B (Homo sapiens, UniProt Q13639); assay: biochemical; parameters: Eurofins Alzheimer's MoA LeadHunter radioligand binding assays; percent inhibition of specific binding, mean of duplicates; details: Ligand or Substrate=[3H]GR-113808
T23 construct: gene HTR4; isoform 5-HT4B
Procedure: as §1

## CCCCCCCCCCCCCCC(=O)O [C15:0, Pentadecanoic acid]
[1]
  inhibition at 20 µM: 15%
[2]
  inhibition at 20 µM: 7.1%
[3]
  inhibition at 20 µM: 11.4%
[4]
  inhibition at 20 µM: 64.7%
[5]
  inhibition at 20 µM: 44.8%
[6]
  inhibition at 20 µM: -14.8%
[7]
  inhibition at 20 µM: 8%
[8]
  inhibition at 20 µM: 70.3%
[9]
  inhibition at 20 µM: -28.1%
[10]
  inhibition at 20 µM: -16.2%
[11]
  inhibition at 20 µM: -35.2%
[12]
  inhibition at 20 µM: 2.1%
[13]
  inhibition at 20 µM: 44.7%
[14]
  inhibition at 20 µM: 5.3%
[15]
  inhibition at 20 µM: 2.5%
[16]
  inhibition at 20 µM: 1.5%
[17]
  inhibition at 20 µM: -17%
[18]
  inhibition at 20 µM: 2.4%
[19]
  inhibition at 20 µM: 39.4%
[20]
  IC50: 2.51 µM
[21]
  IC50: 19.4 µM
[22]
  inhibition at 20 µM: 5.3%
[23]
  inhibition at 20 µM: 3.9%
[24]
  inhibition at 20 µM: 9%
[25]
  inhibition at 20 µM: -18.6%
[26]
  inhibition at 20 µM: 1.7%
[27]
  inhibition at 20 µM: -4.4%
[28]
  inhibition at 20 µM: 10.7%
[29]
  inhibition at 20 µM: -6.6%
[30]
  inhibition at 20 µM: 0%
[31]
  inhibition at 20 µM: -16.1%
[32]
  inhibition at 20 µM: -9.1%
[33]
  inhibition at 20 µM: -1.7%
